The inhibition is how much of the control response was suppressed.

For data set [1], the system named is LX-2. Briefly: Antifibrotic activity against TGFbeta-1 induced human LX-2 cells assessed as inhibition of ACTA2 mRNA expression at 20 uM incubated for 24 hrs by qRT-PCR analysis relative to control. Format: functional. On the set-up: scale not given: the % may be the effect or the level left. (In general: In qPCR the cycle at which signal appears reflects the starting amount.)

The test system of data set [2] is LX-2. The experiment in a line: Antifibrotic activity against TGFbeta-1 induced human LX-2 cells assessed as inhibition of TGFB1 mRNA expression at 20 uM incubated for 24 hrs by qRT-PCR analysis relative to control. On the set-up: scale not given: the % may be the effect or the level left. Format: functional.
The subject of data set [3] is LX-2. Briefly: Antifibrotic activity against TGFbeta-1 induced human LX-2 cells assessed as inhibition of COL1A1 mRNA expression at 20 uM incubated for 24 hrs by qRT-PCR analysis relative to control. Format: functional. Also noted: scale not given: the % may be the effect or the level left.
The subject of data set [4] is LX-2. Briefly: Antifibrotic activity against TGFbeta-1 induced human LX-2 cells assessed as inhibition of COL1A1 mRNA expression at 5 uM incubated for 24 hrs by qRT-PCR analysis relative to control. Format: functional. Also noted: scale not given: the % may be the effect or the level left.
Data set [5] relates to NIH3T3. The experiment in a line: Antifibrotic activity against TGFbeta-1 induced mouse NIH3T3 cells assessed as decrease in COL1A1 mRNA expression at 1 uM incubated for 24 hrs by qRT-PCR analysis relative to control. Format: functional. On the set-up: scale not given: the % may be the effect or the level left.
In a further data set the test system is Enterococcus faecalis. Briefly: Antibacterial activity against Enterococcus faecalis ATCC 33186 assessed as bacterial growth inhibition incubated for 16 hrs in presence of brain heart infusion medium by broth microdilution method. Format: functional, organism-based. For orientation: Broth dilution looks for growth in wells or tubes with falling amounts of substance.

The test system of data set [6] is LX-2. The experiment in a line: Antifibrotic activity against TGFbeta-1 induced human LX-2 cells assessed as inhibition of TGFB1 mRNA expression at 1 uM incubated for 24 hrs by qRT-PCR analysis relative to control. Format: functional. Also noted: scale not given: the % may be the effect or the level left.
Data set [7] concerns LX-2. The experiment in a line: Antifibrotic activity against TGFbeta-1 induced human LX-2 cells assessed as inhibition of ACTA2 mRNA expression incubated for 24 hrs by qRT-PCR analysis. Format: functional, cell-based. Particulars: dose 1-5 µM.
Data set [8] relates to Escherichia coli. The experiment in a line: Antibacterial activity against Escherichia coli ATCC 35218 assessed as bacterial growth inhibition incubated for 16 hrs in presence of Muller-Hinton medium by broth microdilution method. Format: functional, organism-based.
The test system of data set [9] is NIH3T3. Briefly: Antifibrotic activity against TGFbeta-1 induced mouse NIH3T3 cells assessed as decrease in Acta2 mRNA expression at 5 uM incubated for 24 hrs by qRT-PCR analysis relative to control. Format: functional. On the set-up: scale not given: the % may be the effect or the level left.
Data set [10] concerns NIH3T3. Briefly: Antifibrotic activity against TGFbeta-1 induced mouse NIH3T3 cells assessed as decrease in Acta2 mRNA expression at 1 uM incubated for 24 hrs by qRT-PCR analysis relative to control. Format: functional. On the set-up: scale not given: the % may be the effect or the level left.
Data set [11] concerns LX-2. The experiment in a line: Antifibrotic activity against TGFbeta-1 induced human LX-2 cells assessed as inhibition of ACTA2 mRNA expression at 5 uM incubated for 24 hrs by qRT-PCR analysis relative to control. Format: functional. On the set-up: scale not given: the % may be the effect or the level left.
The next data set concerns Bacillus subtilis. Briefly: Antibacterial activity against Bacillus subtilis CPCC 100029 assessed as bacterial growth inhibition incubated for 16 hrs in presence of Muller-Hinton medium by broth microdilution method. Format: functional, organism-based.
In data set [12] the target is T1, Polyunsaturated fatty acid 5-lipoxygenase (Homo sapiens) (UniProt P09917).
T1 sequence (whole entry): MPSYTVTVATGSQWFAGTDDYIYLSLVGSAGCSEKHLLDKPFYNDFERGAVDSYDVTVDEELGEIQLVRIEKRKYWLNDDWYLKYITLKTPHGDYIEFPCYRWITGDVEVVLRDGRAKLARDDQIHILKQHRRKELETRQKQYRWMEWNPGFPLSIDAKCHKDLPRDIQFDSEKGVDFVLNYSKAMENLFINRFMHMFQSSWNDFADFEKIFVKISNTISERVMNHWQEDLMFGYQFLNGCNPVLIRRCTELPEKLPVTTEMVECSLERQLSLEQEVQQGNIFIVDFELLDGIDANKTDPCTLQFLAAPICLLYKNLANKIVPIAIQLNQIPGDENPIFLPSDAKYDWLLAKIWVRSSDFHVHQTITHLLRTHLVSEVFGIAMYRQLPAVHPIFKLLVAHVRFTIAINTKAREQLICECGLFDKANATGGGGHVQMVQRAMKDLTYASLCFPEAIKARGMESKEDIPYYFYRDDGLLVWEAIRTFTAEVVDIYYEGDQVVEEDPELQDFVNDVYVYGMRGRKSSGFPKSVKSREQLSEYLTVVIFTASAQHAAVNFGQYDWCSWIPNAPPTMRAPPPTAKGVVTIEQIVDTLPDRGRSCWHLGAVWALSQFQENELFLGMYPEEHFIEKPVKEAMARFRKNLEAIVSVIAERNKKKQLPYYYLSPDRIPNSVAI
The experiment in a line: Inhibition of human 5-LO at 2 uM incubated for 15 mins in presence of ATP by measuring fluorescence intensity relative to control.

The test system of another data set is Enterococcus faecium. The experiment in a line: Antibacterial activity against Enterococcus faecium 310682 (VRE) assessed as bacterial growth inhibition incubated for 16 hrs in presence of brain heart infusion medium by broth microdilution method. Format: functional, organism-based.
In data set [13] the test system is Escherichia coli. Briefly: Antibacterial activity against Escherichia coli ATCC 25922 assessed as bacterial growth inhibition incubated for 16 hrs in presence of Muller-Hinton medium by broth microdilution method. Format: functional, organism-based.
The test system of data set [14] is LX-2. Briefly: Antifibrotic activity against TGFbeta-1 induced human LX-2 cells assessed as inhibition of COL1A1 mRNA expression at 1 uM incubated for 24 hrs by qRT-PCR analysis relative to control. Format: functional. On the set-up: scale not given: the % may be the effect or the level left.
The subject of data set [15] is Klebsiella pneumoniae. The experiment in a line: Antibacterial activity against Klebsiella pneumoniae ATCC 10031 assessed as bacterial growth inhibition incubated for 16 hrs in presence of Muller-Hinton medium by broth microdilution method. Format: functional, organism-based.
In data set [16] the test system is LX-2. The experiment in a line: Antifibrotic activity against TGFbeta-1 induced human LX-2 cells assessed as inhibition of ACTA2 mRNA expression at 1 uM incubated for 24 hrs by qRT-PCR analysis relative to control. Also noted: scale not given: the % may be the effect or the level left. Format: functional.
The subject of data set [17] is Staphylococcus aureus. Briefly: Antibacterial activity against Staphylococcus aureus ATCC 33591 assessed as bacterial growth inhibition incubated for 16 hrs in presence of Muller-Hinton medium by broth microdilution method. Format: functional, organism-based.
Data set [18] deals with NIH3T3. The experiment in a line: Antifibrotic activity against TGFbeta-1 induced mouse NIH3T3 cells assessed as decrease in COL1A1 mRNA expression at 5 uM incubated for 24 hrs by qRT-PCR analysis relative to control. Format: functional. Also noted: scale not given: the % may be the effect or the level left.
Data set [19] relates to Pseudomonas aeruginosa. The experiment in a line: Antibacterial activity against Pseudomonas aeruginosa 2774 assessed as bacterial growth inhibition incubated for 16 hrs in presence of Muller-Hinton medium by broth microdilution method. Format: functional, organism-based.
The subject of data set [20] is Staphylococcus aureus. Briefly: Antibacterial activity against Staphylococcus aureus ATCC 29213 assessed as bacterial growth inhibition incubated for 16 hrs in presence of Muller-Hinton medium by broth microdilution method. Format: functional, organism-based.
The subject of data set [21] is LX-2. Briefly: Cytotoxicity against human LX-2 cells assessed as reduction in cell viability at 200 uM incubated for 24 hrs by CCK-8 assay. Format: toxicity, cell-based. Particulars: lx-2, 24 h. A general note: Tetrazolium dyes change colour on reduction, which living cells bring about.
Data set [22] deals with Acinetobacter baumannii. Briefly: Antibacterial activity against Acinetobacter baumannii 2799 assessed as bacterial growth inhibition incubated for 16 hrs in presence of Muller-Hinton medium by broth microdilution method. Format: functional, organism-based.
In data set [23] the test system is Acinetobacter baumannii. Briefly: Antibacterial activity against Acinetobacter baumannii ATCC 19606 assessed as bacterial growth inhibition incubated for 16 hrs in presence of Muller-Hinton medium by broth microdilution method. Format: functional, organism-based.
Data set [24] has as its system Pseudomonas aeruginosa. Briefly: Antibacterial activity against Pseudomonas aeruginosa ATCC 27853 assessed as bacterial growth inhibition incubated for 16 hrs in presence of Muller-Hinton medium by broth microdilution method. Format: functional, organism-based.
Data set [25] concerns Klebsiella pneumoniae. The experiment in a line: Antibacterial activity against Klebsiella pneumoniae ATCC 700603 assessed as bacterial growth inhibition incubated for 16 hrs in presence of Muller-Hinton medium by broth microdilution method. Format: functional, organism-based.
Data set [26] concerns LX-2. The experiment in a line: Antifibrotic activity against TGFbeta-1 induced human LX-2 cells assessed as inhibition of COL1A1 mRNA expression incubated for 24 hrs by qRT-PCR analysis. Format: functional, cell-based. To be noted: dose 1-5 µM.
Data set [27] concerns LX-2. The experiment in a line: Antifibrotic activity against TGFbeta-1 induced human LX-2 cells assessed as inhibition of TGFB1 mRNA expression at 5 uM incubated for 24 hrs by qRT-PCR analysis relative to control. Format: functional. Also noted: scale not given: the % may be the effect or the level left.
For data set [28], the system named is LX-2. The experiment in a line: Antifibrotic activity against TGFbeta-1 induced human LX-2 cells assessed as inhibition of TGFB1 mRNA expression incubated for 24 hrs by qRT-PCR analysis. Format: functional, cell-based. To be noted: dose 1-5 µM.

SMILES strings stand for the structures. Activity calls are given as the source filed them. The rule behind the calls is not given here.

Consider `O=C(O[C@@H]1Cc2c(O)cc(O)cc2O[C@@H]1c1cc(O)c(O)c(O)c1)c1cc(O)c(O)c(O)c1` [EPIGALOCATECHIN GALLATE], for which the Activity with LX-2 [1] stood at 62%; in the data set with LX-2 [2] it was 88%; in the data set on LX-2 [3], 89%.
In the case of `CC(=O)OC[C@H](CCCCNC(=O)c1cccc(O)c1O)NC(=O)c1cccc(O)c1O`, the Activity with LX-2 [4] was 81%; in the data set on NIH3T3 [5] it was 60%; in the data set on LX-2 [6], 36%; in the data set on LX-2 [7] it was “Dose-dependent-effect”; in the data set with NIH3T3 [9], 129%; in the data set on NIH3T3 [10], 95%. For the same molecule, the Activity was 132% with LX-2 [11]; 35% in the data set on LX-2 [14]; 62% in the data set on LX-2 [16]; 70% with NIH3T3 [18]; “Non-toxic” in the data set on LX-2 [21]; “Dose-dependent-effect” with LX-2 [26]. The figures for the Activity in the data set on LX-2 [27] and in the data set with LX-2 [28] were 70% and “Dose-dependent-effect”, respectively. Besides, the result with Enterococcus faecalis, in the data set with Escherichia coli [8], in the data set on Bacillus subtilis, in the data set with Enterococcus faecium, with Escherichia coli [13] and in the data set with Klebsiella pneumoniae [15] was inactive. Further, the result in the data set with Staphylococcus aureus [17], in the data set with Pseudomonas aeruginosa [19], with Staphylococcus aureus [20], in the data set with Acinetobacter baumannii [22], in the data set with Acinetobacter baumannii [23] and in the data set with Pseudomonas aeruginosa [24] was inactive. Also, the outcome in the data set with Klebsiella pneumoniae [25] was inactive. For the same molecule, the inhibition in data set [12] was found to be 78%.
In the case of `O=C(Cc1ccccc1)OC[C@H](CCCCNC(=O)c1cccc(O)c1O)NC(=O)c1cccc(O)c1O`, the Activity was 87% in the data set with LX-2 [4]; 78% with NIH3T3 [5]; 46% with LX-2 [6]; “Dose-dependent-effect” with LX-2 [7]; 124% in the data set on NIH3T3 [9]; 94% with NIH3T3 [10]. In addition, the Activity in the data set with LX-2 [11] was 139%; with LX-2 [14], 46%; in the data set with LX-2 [16], 82%; with NIH3T3 [18], 81%; in the data set on LX-2 [21], “Non-toxic”; in the data set with LX-2 [26] it was “Dose-dependent-effect”. Further, the Activity with LX-2 [27] is 69%; in the data set on LX-2 [28], “Dose-dependent-effect”. Further, the outcome in the data set on Enterococcus faecalis, with Escherichia coli [8], in the data set on Bacillus subtilis, with Enterococcus faecium, in the data set on Escherichia coli [13] and with Klebsiella pneumoniae [15] was inactive. Further, the result in the data set with Staphylococcus aureus [17], with Pseudomonas aeruginosa [19], with Staphylococcus aureus [20], in the data set with Acinetobacter baumannii [22], with Acinetobacter baumannii [23] and in the data set with Pseudomonas aeruginosa [24] was inactive. The result with Klebsiella pneumoniae [25] was inactive. For the same molecule, in data set [12], the inhibition stood at 72%.
`CCC(=O)OC[C@H](CCCCNC(=O)c1cccc(O)c1O)NC(=O)c1cccc(O)c1O`: the Activity is 92% with LX-2 [4]; 35% in the data set with NIH3T3 [5]; 57% in the data set with LX-2 [6]; “Dose-dependent-effect” in the data set with LX-2 [7]; 117% with NIH3T3 [9]; 61% with NIH3T3 [10]. Also, the Activity in the data set with LX-2 [11] was 139%; with LX-2 [14] it was 50%; in the data set with LX-2 [16], 105%; in the data set with NIH3T3 [18] it was 81%; with LX-2 [21] it was “Non-toxic”; with LX-2 [26] it was “Dose-dependent-effect”. The Activity in the data set with LX-2 [27] was 73%; with LX-2 [28], “Dose-dependent-effect”. For the same molecule, the outcome with Enterococcus faecalis, in the data set with Escherichia coli [8], in the data set on Bacillus subtilis, in the data set on Enterococcus faecium, in the data set with Escherichia coli [13] and with Klebsiella pneumoniae [15] was inactive. Also, the result in the data set on Staphylococcus aureus [17], with Pseudomonas aeruginosa [19], with Staphylococcus aureus [20], with Acinetobacter baumannii [22], in the data set with Acinetobacter baumannii [23] and in the data set with Pseudomonas aeruginosa [24] was inactive. Moreover, in the data set on Klebsiella pneumoniae [25], the result was inactive. Further, in data set [12], the inhibition is 75%.

(Values after ChEMBL document CHEMBL6078652, “Discovery of Sporachelins by Genome Mining of a Micromonospora Strain” (J Nat Prod, 2024).)
